Test results taken from patent US8193167B2, “Pharmacologically active agents containing esterified phosphonates and methods for use thereof” (priority 2004, dated 2012).
Counter-ions that a name gives are not always drawn. Like-named read-outs stand apart in the source and are kept apart here.

How the values were obtained:
HCMV strain AD-169 = experiment: Plaque reduction assay for antiviral activity, HCMV in HFF cells; type: cell-based; details: read-out: HCMV EC50
MCMV strain Smith = experiment: Plaque reduction assay for antiviral activity, MCMV in MEF cells; type: cell-based; details: read-out: MCMV EC50
[1] = system: human foreskin fibroblast (HFF) cells
Vaccinia Copenhagen = experiment: microbe, parasite or virus in culture; type: cell-based, vaccinia virus (VV); details: read-out: Vaccinia Copenhagen EC50
Cowpox Brighton = experiment: microbe, parasite or virus in culture; type: cell-based, cowpox virus (CV); details: read-out: Cowpox Brighton EC50
in vitro = details: human
[2] = HFF cells, 8-day incubation, value without SD = single determination

SMILES | EC50 (HCMV strain AD-169; [2]) [nM] | EC50 (MCMV strain Smith; MEF cells, 7-day incubation) [nM] | CC50 [1] [nM] | EC50 (Vaccinia Copenhagen) [nM] | EC50 (Cowpox Brighton) [nM] | other results
CCCCCCCCCCCCCCCCCCCCCCOP1(=O)COC(Cn2ccc(N)nc2=O)CO1 (mixture of isomers) [DC-cCDV, Docosyl Cyclic Cidofovir] | 32 | 2800 ± 1700 | > 100000 |  |  | 
CCCCCCCCCCCCCCCCOP1(=O)COC(Cn2ccc(N)nc2=O)CO1 (mixture of isomers) [HD-cCDV, Hexadecyl Cyclic Cidofovir] | 3100 ± 2350 | 130 ± 10 | 83000 ± 20000 |  |  | 
Nc1ccn(C[C@@H](CO)OCP(=O)(O)O)c(=O)n1 [CDV, Cidofovir, reference compound] |  |  |  |  |  | EC50 (Vaccinia Copenhagen; Orthopoxvirus vaccinia, HFF): 31000 ± 5400 nM; EC50 (Cowpox Brighton; Cowpox virus, HFF): 42000 ± 5400 nM; EC50 (HCMV strain AD-169; Human betaherpesvirus 5, AD169, HFF, 192 h): 1200 ± 430 nM; EC50 (MCMV strain Smith; MEF, 168 h): 40 ± 30 nM; CC50 (in vitro): > 317000 nM
CCCCCCCCCCCCCCCCCCCCCCOP(=O)(O)COC(CO)Cn1ccc(N)nc1=O (centres unmarked) [DC-CDV, Docosyl Cidofovir, Sodium Salt] | 4 | 850 ± 7 | 79600 |  |  | 
CCCCCCCCCCCCOP(=O)(O)CO[C@H](CO)Cn1ccc(N)nc1=O [DD-CDV, Dodecyl Cidofovir, Sodium Salt] | 310 ± 190 | > 10000 | > 100000 | > 20000 | > 20000 | 
CCCCCCCCCCCCCCCCCCCCOP(=O)(O)CO[C@H](CO)Cn1ccc(N)nc1=O [EC-CDV, Eicosyl Cidofovir, Sodium Salt] | 0.7 | 5 |  | 1600 ± 1300 | 1500 ± 900 | 
CCCCCCCCCCCCCCCCCCCCOP1(=O)CO[C@@H](Cn2ccc(N)nc2=O)CO1 (some centres unmarked) [EC-cCDV, Eicosyl Cyclic Cidofovir] | 11 | 230 ± 10 | 86100 |  |  | 
CCCCCCCCCCCCCCCCOP(=O)(O)COC(CO)Cn1ccc(N)nc1=O (centres unmarked) [HD-CDV, Hexadecyl Cidofovir, Sodium Salt] | 5 | 20 | > 157000 | 3100 ± 100 | 6000 ± 2000 | 
CCCCCCCCOP(=O)(O)CO[C@H](CO)Cn1ccc(N)nc1=O [O-CDV, Octyl Cidofovir, Sodium Salt] | 5250 ± 5700 | > 10000 | > 100000 | > 20000 | > 20000 | 
CCCCCCCCCCCCCCCCCCCCCCCCOP(=O)(O)CO[C@H](CO)Cn1ccc(N)nc1=O [TC-CDV, Tetracosyl Cidofovir, Sodium Salt] | 6 | 7450 ± 640 | > 100000 | > 17000 | > 20000 | 
CCCCCCCCCCCCCCCCCCCCCCCCOP1(=O)CO[C@@H](Cn2ccc(N)nc2=O)CO1 (some centres unmarked) [TC-cCDV, Tetracosyl Cyclic Cidofovir] | 320 | 2300 ± 1300 | > 100000 |  |  | 
Nc1ccn(C[C@H]2COP(=O)(O)CO2)c(=O)n1 [cCDV, Cyclic Cidofovir, reference compound] |  |  |  |  |  | EC50 (HCMV strain AD-169; Human betaherpesvirus 5, AD169, 192 h, HFF cells, 8-day incubation, value without SD = single determination): 3100 ± 1800 nM; EC50 (MCMV strain Smith; 168 h, MEF cells, 7-day incubation): 230 ± 70 nM; CC50 (in vitro): > 331000 nM
